In PubChem BioAssay (NCI):
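Dose response: 5 concentrations. Exposure: 48 h. Format: 96-well plates. Endpoint: linear interpolation; highest concentration if not reached. At the GI50, growth is halved. TGI: concentration producing complete growth inhibition.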

Columns and labels:
Test in all cases: NCI anticancer screen, dose series, 48 h
[1] = test system: UACC-257 melanoma
[2] = test system: MOLT-4 leukemia
[3] = test system: SW-620 colon
[4] = test system: SK-MEL-28 melanoma
[5] = test system: U251 CNS
[6] = test system: NCI-H226 lung
[7] = test system: EKVX NSCLC
[8] = test system: ACHN renal
[9] = test system: NCI-H522 lung
[10] = test system: PC-3 prostate
[11] = test system: MDA-MB-231 breast
[12] = test system: SK-MEL-5 melanoma
[13] = test system: UO-31 renal
[14] = test system: KM12 colon
[15] = test system: HOP-92 NSCLC
[16] = test system: UACC-62 melanoma
[17] = test system: SN12C renal
[18] = test system: HS 578T breast
[19] = test system: OVCAR-5 ovarian
[20] = test system: K-562 leukemia
[21] = test system: NCI-H23 lung
[22] = test system: 786-0 renal
[23] = test system: DU-145 prostate
[24] = test system: NCI-H460 lung
[25] = test system: SK-OV-3 ovarian
[26] = test system: HL-60(TB) leukemia
[27] = test system: SNB-19 CNS
[28] = test system: OVCAR-8 ovarian
[29] = test system: SF-268 CNS
[30] = test system: LOX IMVI melanoma
[31] = test system: CCRF-CEM leukemia
[32] = test system: COLO 205 colon
[33] = test system: MCF7 breast
[34] = test system: CAKI-1 renal
[35] = test system: OVCAR-4 ovarian
[36] = test system: A498 renal
[37] = test system: RXF 393 renal
[38] = test system: IGROV1 ovarian
[39] = test system: SNB-75 CNS
[40] = test system: HT29 colon
[41] = test system: A549 NSCLC
[42] = test system: SF-539 CNS
[43] = test system: SK-MEL-2 melanoma
[44] = test system: HCC-2998 colon
[45] = test system: RPMI-8226 leukemia
[46] = test system: SR leukemia
[47] = test system: M14 melanoma
[48] = test system: HOP-62 NSCLC
[49] = test system: T-47D breast
[50] = test system: MALME-3M melanoma
[51] = test system: SF-295 CNS
[52] = test system: OVCAR-3 ovarian
[53] = test system: NCI/ADR-RES ovarian
[54] = test system: BT-549 breast
[55] = test system: HCT-116 colon
[56] = test system: TK-10 renal
[57] = test system: MDA-MB-435
[58] = test system: HCT-15 colon

For `NS(=O)(=O)c1ccc(N=Nc2c(O)[nH]c3ccc(Cl)cc23)cc1`, the GI50 [1] was > 25 µM, the TGI [1] was > 25 µM and the GI50 [2] was > 25 µM. The TGI [2] was > 25 µM, the GI50 [3] was > 22.4 µM and the TGI [3] was > 25 µM. The GI50 [4] was > 25 µM, the TGI [4] was > 25 µM and the GI50 [5] was 6.64 µM. For the same molecule, the TGI [5] was > 25 µM, the GI50 [6] was 13.6 µM and the TGI [6] was > 25 µM. The GI50 [7] was > 25 µM, the TGI [7] was > 25 µM and the GI50 [8] was 9.95 µM. The TGI [8] was > 25 µM, the GI50 [9] was 5.38 µM and the TGI [9] was > 25 µM. The GI50 [10] was > 25 µM, the TGI [10] was > 25 µM and the GI50 [11] was 8.86 µM. For the same molecule, the TGI [11] was > 25 µM, the GI50 [12] was 16.1 µM and the TGI [12] was > 25 µM. The GI50 [13] was 6.46 µM, the TGI [13] was > 20.6 µM and the GI50 [14] was 7.58 µM. For the same molecule, the TGI [14] was > 25 µM, the GI50 [15] was > 9.61 µM and the TGI [15] was > 25 µM. The GI50 [16] was > 15.2 µM, the TGI [16] was > 25 µM and the GI50 [17] was 17.2 µM. The TGI [17] was > 25 µM, the GI50 [18] was 11.6 µM and the TGI [18] was > 25 µM. For the same molecule, the GI50 [19] was > 25 µM, the TGI [19] was > 25 µM and the GI50 [20] was > 25 µM. For the same molecule, the TGI [20] was > 25 µM, the GI50 [21] was 14 µM and the TGI [21] was > 25 µM. For the same molecule, the GI50 [22] was 8.42 µM, the TGI [22] was > 20.3 µM and the GI50 [23] was 15.5 µM. The TGI [23] was > 25 µM, the GI50 [24] was 8.62 µM and the TGI [24] was > 25 µM. The GI50 [25] was 6.73 µM, the TGI [25] was 14.5 µM and the GI50 [26] was > 25 µM. The TGI [26] was > 25 µM, the GI50 [27] was > 25 µM and the TGI [27] was > 25 µM. The GI50 [28] was 12.9 µM, the TGI [28] was > 25 µM and the GI50 [29] was 17.6 µM. The TGI [29] was > 25 µM, the GI50 [30] was 9.96 µM and the TGI [30] was > 25 µM. The GI50 [31] was > 7.22 µM, the TGI [31] was > 25 µM and the GI50 [32] was > 25 µM. For the same molecule, the TGI [32] was > 25 µM, the GI50 [33] was 12.2 µM and the TGI [33] was > 25 µM. The GI50 [34] was > 17.9 µM, the TGI [34] was > 25 µM and the GI50 [35] was > 21.9 µM. For the same molecule, the TGI [35] was > 25 µM, the GI50 [36] was > 22 µM and the TGI [36] was > 25 µM. For the same molecule, the GI50 [37] was 12.9 µM, the TGI [37] was > 25 µM and the GI50 [38] was > 19.6 µM. For the same molecule, the TGI [38] was > 25 µM, the GI50 [39] was 8.66 µM and the TGI [39] was 24.9 µM. For the same molecule, the GI50 [40] was > 18.9 µM, the TGI [40] was > 25 µM and the GI50 [41] was 11.3 µM. For the same molecule, the TGI [41] was > 25 µM, the GI50 [42] was 5.29 µM and the TGI [42] was > 21.9 µM. The GI50 [43] was > 18.3 µM, the TGI [43] was > 25 µM and the GI50 [44] was 18.3 µM. The TGI [44] was > 25 µM, the GI50 [45] was > 25 µM and the TGI [45] was > 25 µM. The GI50 [46] was 6.13 µM, the TGI [46] was > 25 µM and the GI50 [47] was > 25 µM. The TGI [47] was > 25 µM, the GI50 [48] was 13.4 µM and the TGI [48] was > 25 µM. For the same molecule, the GI50 [49] was > 25 µM, the TGI [49] was > 25 µM and the GI50 [50] was 20.7 µM. The TGI [50] was > 25 µM, the GI50 [51] was > 25 µM and the TGI [51] was > 25 µM. For the same molecule, the GI50 [52] was 4.87 µM, the TGI [52] was 14.2 µM and the GI50 [53] was 24.5 µM. The TGI [53] was > 25 µM, the GI50 [54] was > 16.9 µM and the TGI [54] was > 25 µM. For the same molecule, the GI50 [55] was 7.04 µM, the TGI [55] was > 16.9 µM and the GI50 [56] was 5.78 µM. The TGI [56] was > 23 µM, the GI50 [57] was > 25 µM and the TGI [57] was > 25 µM. The GI50 [58] was > 22.1 µM and the TGI [58] was > 25 µM.

With `C#CC#CC#CC#CC#CC#CC#CC#CC[C@@H]1OC[C@H](COC(=O)O[C@@H](C(=O)O[C@H]2C[C@@]3(O)[C@@H](OC(=O)c4ccccc4)[C@@H]4[C@]5(OC(C)=O)CO[C@@H]5C[C@H](O)[C@@]4(C)C(=O)[C@H](OC(C)=O)C(=C2C)C3(C)C)[C@@H](NC(=O)c2ccccc2)c2ccccc2)O1` the GI50 [1] was 6.61 µM, the TGI [1] was > 25 µM and the GI50 [2] was 1.85 µM. For the same molecule, the TGI [2] was > 25 µM, the GI50 [3] was 0.819 µM and the TGI [3] was > 25 µM. For the same molecule, the GI50 [4] was 3.88 µM, the TGI [4] was > 25 µM and the GI50 [5] was 1.42 µM. For the same molecule, the TGI [5] was > 25 µM, the GI50 [6] was > 21.8 µM and the TGI [6] was > 25 µM. For the same molecule, the GI50 [7] was > 25 µM, the TGI [7] was > 25 µM and the GI50 [8] was > 25 µM. For the same molecule, the TGI [8] was > 25 µM, the GI50 [9] was 1.81 µM and the TGI [9] was > 25 µM. The GI50 [10] was 1.58 µM, the TGI [10] was > 25 µM and the GI50 [11] was 4.17 µM. The TGI [11] was > 25 µM, the GI50 [12] was 3.13 µM and the TGI [12] was > 25 µM. The GI50 [13] was > 25 µM, the TGI [13] was > 25 µM and the GI50 [14] was 0.683 µM. For the same molecule, the TGI [14] was > 25 µM, the GI50 [15] was > 18.5 µM and the TGI [15] was > 25 µM. The GI50 [16] was 5.58 µM, the TGI [16] was > 25 µM and the GI50 [17] was 4.36 µM. The TGI [17] was > 25 µM, the GI50 [18] was 0.673 µM and the TGI [18] was > 25 µM. The GI50 [19] was 1.58 µM, the TGI [19] was > 25 µM and the GI50 [20] was 1.04 µM. For the same molecule, the TGI [20] was > 25 µM, the GI50 [21] was 2.24 µM and the TGI [21] was > 25 µM. The GI50 [22] was > 25 µM, the TGI [22] was > 25 µM and the GI50 [23] was 0.681 µM. The TGI [23] was > 25 µM, the GI50 [24] was 0.185 µM and the TGI [24] was > 25 µM. For the same molecule, the GI50 [25] was 3.32 µM, the TGI [25] was > 25 µM and the GI50 [26] was 0.819 µM. The TGI [26] was > 18.7 µM, the GI50 [27] was 3.88 µM and the TGI [27] was > 25 µM. The GI50 [28] was 1.57 µM, the TGI [28] was > 25 µM and the GI50 [29] was 1.93 µM. For the same molecule, the TGI [29] was > 25 µM, the GI50 [30] was 0.708 µM and the TGI [30] was > 25 µM. For the same molecule, the GI50 [31] was 1.25 µM, the TGI [31] was > 25 µM and the GI50 [32] was 0.665 µM. For the same molecule, the TGI [32] was > 10.8 µM, the GI50 [33] was 0.348 µM and the TGI [33] was > 25 µM. For the same molecule, the GI50 [34] was 5.85 µM, the TGI [34] was > 25 µM and the GI50 [35] was > 21 µM. For the same molecule, the TGI [35] was > 25 µM, the GI50 [36] was 1.39 µM and the TGI [36] was > 23.5 µM. The GI50 [37] was > 5.16 µM, the TGI [37] was > 25 µM and the GI50 [38] was 1.29 µM. For the same molecule, the TGI [38] was > 25 µM, the GI50 [39] was 0.114 µM and the TGI [39] was 1.48 µM. The GI50 [40] was 0.355 µM, the TGI [40] was > 25 µM and the GI50 [41] was 1.42 µM. For the same molecule, the TGI [41] was > 25 µM, the GI50 [42] was 1.2 µM and the TGI [42] was > 25 µM. The GI50 [43] was 5.65 µM, the TGI [43] was > 25 µM and the GI50 [44] was 1.26 µM. The TGI [44] was > 25 µM, the GI50 [45] was 0.436 µM and the TGI [45] was > 25 µM. For the same molecule, the GI50 [46] was 0.862 µM, the TGI [46] was > 25 µM and the GI50 [47] was 1.09 µM. The TGI [47] was 24.9 µM, the GI50 [48] was 5.13 µM and the TGI [48] was > 25 µM. For the same molecule, the GI50 [49] was 1.07 µM, the TGI [49] was > 25 µM and the GI50 [50] was 2.07 µM. The TGI [50] was > 25 µM, the TGI [51] was > 25 µM and the GI50 [52] was 0.682 µM. The TGI [52] was > 25 µM, the GI50 [53] was > 25 µM and the TGI [53] was > 25 µM. For the same molecule, the GI50 [54] was 3.71 µM, the TGI [54] was > 25 µM and the GI50 [55] was 0.596 µM. The TGI [55] was > 25 µM, the GI50 [56] was > 25 µM and the TGI [56] was > 25 µM. For the same molecule, the GI50 [57] was 0.0987 µM, the TGI [57] was 0.398 µM and the GI50 [58] was > 25 µM. The TGI [58] was > 25 µM.
